Counter-ions that a name gives are not always drawn.
System: HUVEC+017-PC-M co-cultures
Experiment: Kit co-culture assay to study angiogenesis in vitro (tube formation on MATRIGEL)
Format: cell-based, human
Experimental: A kit has been developed to provide a unique, robust co-culture assay to study angiogenesis in vitro. In this model system, we utilize a unique perivascular stromal cell line (017-PC-M) that when co-cultured with human umbilical vein endothelial cells (HUVEC) results in the rapid formation of large angiogenic networks with long-term stability of 4-6 days without the need for additional growth factors and complex media supplements.
VASCULIFE® assay media: VASCULIFE® basal media plus 10 mM L-glutamine (final concentration)
Assay Protocol: • 1. Four days (Day −4) prior to assay, HUVECs should be thawed and seeded at 3.5×10^4 cells per cm^2 into a 150 cm^2 tissue culture flask containing VASCULIFE® growth media. Incubate cells at 37° C. and 5% CO2. Exchange full volume of media every 1-2 days. • 2. Two days (Day −2) prior to assay, PC-M cells should be thawed and seeded at 10×10^4 cells per cm^2 into a 150 cm^2 tissue culture flask containing VASCULIFE® growth media. Incubate cells at 37° C. and 5% CO2. Exchange full volume of media every 1-2 days. • 3. At Day 0, prepare 96-well plate with MATRIGEL® coating of 50 μL per well. Let plate warm for at least 1 hour prior to seeding cells. • 4. Prepare assay solution: dilute L-glutamine into VASCULIFE® medium. • 5. On Day 0, harvest both HUVECs and PC-M cells. Recommended: Use 5-7.5 mL ACCUTASE® treatment for 3-5 minutes to detach cells, then quench Accutase® with an equivolume of Vasculife® growth media before pelleting cells. • 6. Prepare VASCULIFE® assay media (500 μL per each triplicate condition). • 7. Pellet cells at 250-350 rpm for 5 minutes at room temperature. • 8. Decant media and re-suspend into 1 mL of VASCULIFE® assay media. • 9. Measure cell concentration and viability:
• 10. Mix cells at a ratio of 3:1 HUVECs: 017-PC-M cells and seed at a final density of 37,500 cells per well. For one set of triplicates, mix approximately 85,000 HUVECs with 28,000 017-PC-M cells. • 11. Allow co-culture to adhere at 37° C. for 3-4 hours. • 12. […]

basic FGF: basic fibroblast growth factor added to the assay media
tube formation after addition of basic FGF to the assay media (concentrations ≥10 ng/mL, monocultures of HUVECs, of 017-PC-M cells and/or co-cultures): little to no tube formation

Cc1ccc(C(=O)Nc2ccc(S(=O)(=O)O)c3cc(S(=O)(=O)O)cc(S(=O)(=O)O)c23)cc1NC(=O)c1cccc(NC(=O)Nc2cccc(C(=O)Nc3cc(C(=O)Nc4ccc(S(=O)(=O)O)c5cc(S(=O)(=O)O)cc(S(=O)(=O)O)c45)ccc3C)c2)c1 [Suramin, suramin hexasodium salt]
reduce tube formation (Addition of 50 μM Suramin): > 90%

VEGF
formation of tubes after addition of VEGF to the assay media (VEGF concentrations ≤2.5 ng/mL or ≥10 ng/mL, monocultures and/or co-cultures): may inhibit formation of tubes
